The values below are quoted from earlier work in US10959985B1, “Pharmaceutical compositions including carvedilol and methods of using the same” (ECI Pharmaceuticals, LLC, priority 2019, dated 2021).

Like-named read-outs stand apart in the source and are kept apart here.

`COc1ccccc1OCCNCC(O)COc1cccc2[nH]c3ccccc3c12` (racemic) [Carvedilol, (±) 1-(9H-carbazol-4-yloxy)-3-[[2(2-methoxyphenoxy)ethyl]amino]-2-propanol]: the solubility in water entry was “practically insoluble”. Moreover, in the data set with mice (intraperitoneal), the “intraperitoneal LD50” value is given as 364 mg/kg. In the data set with mice (oral), the “oral LDLO” value was 8 gm/kg. The “oral TDLO” value with humans (men) was 5.357 mg/kg. Moreover, the “oral TDLO” value with humans (women) is 12 mg/kg. In the data set on rats (intraperitoneal), the “intraperitoneal LD50” value is on record as 769 mg/kg. For the same molecule, in the data set with rats (oral), the “oral LDLO” value was 8 gm/kg.
